{"source": "patent US20070265208A1", "about": "“Association of calpain inhibitors and reactive oxygen species trapping agents” (priority 2000, published 2007)", "key": {"[1]": {"system": "calpain activity in human neuroblastomas (SHSY5Y)", "test": "In situ calpain activity in human neuroblastomas SHSY5Y stimulated by maitotoxin", "format": "cell-based", "conditions": "read-out: Inhibition human calpain I, in situ (SHSY5Y) [IC50 (nM)]; n = 6; maitotoxin 1 nM; 4 h", "method": "Human neuroblastomas SHSY5Y and rat glial cells C6 are seeded at a rate of 50,000 and 25,000 cells respectively per well on 96-well plates in DMEM 10% FBS. The next day, the cells which have adhered are washed 3 times in DMEM medium without serum and 40 mM Hepes. 100 microlitres of product B is placed in the wells. After incubation for 1 hour at 37° C. under an atmosphere of 5% CO2, 10 μl containing the fluorescent substrate of calpain (Suc-Leu-Tyr-AMC) and maitotoxin (Sigma, ref: M-9159), in order to obtain a final concentration in the well of 100 μM and of 1 nM respectively are added.\nIn order to determine the total activity of the cell enzyme, wells containing no product are added to the plate (100 μL DMSO 100th plus 10 μl of MTX and substrate). The background noise is determined by adding control wells with no MTX. Each concentration of the products (0.3 μM to 200 μM for the SHSY5Y's and 0.01 μM to 100 μM for the C6's) is tested in triplicate. The plates are shaken, the fluorescence is read at 380/460 nm using the Victor at T zero. Incubation takes place for four hours for the SHSY5Y and 1 hour 30 minutes for the C6 cells at 30° C. in darkness."}, "human calpain I": {"biological_target": "T1, human calpain I (Homo sapiens, UniProt P07384)", "T1 construct": "enzyme purified from human erythrocytes; purchased Calbiochem 208713; host or cells: human erythrocytes (native tissue source)", "T1 sequence (P07384 1-714)": "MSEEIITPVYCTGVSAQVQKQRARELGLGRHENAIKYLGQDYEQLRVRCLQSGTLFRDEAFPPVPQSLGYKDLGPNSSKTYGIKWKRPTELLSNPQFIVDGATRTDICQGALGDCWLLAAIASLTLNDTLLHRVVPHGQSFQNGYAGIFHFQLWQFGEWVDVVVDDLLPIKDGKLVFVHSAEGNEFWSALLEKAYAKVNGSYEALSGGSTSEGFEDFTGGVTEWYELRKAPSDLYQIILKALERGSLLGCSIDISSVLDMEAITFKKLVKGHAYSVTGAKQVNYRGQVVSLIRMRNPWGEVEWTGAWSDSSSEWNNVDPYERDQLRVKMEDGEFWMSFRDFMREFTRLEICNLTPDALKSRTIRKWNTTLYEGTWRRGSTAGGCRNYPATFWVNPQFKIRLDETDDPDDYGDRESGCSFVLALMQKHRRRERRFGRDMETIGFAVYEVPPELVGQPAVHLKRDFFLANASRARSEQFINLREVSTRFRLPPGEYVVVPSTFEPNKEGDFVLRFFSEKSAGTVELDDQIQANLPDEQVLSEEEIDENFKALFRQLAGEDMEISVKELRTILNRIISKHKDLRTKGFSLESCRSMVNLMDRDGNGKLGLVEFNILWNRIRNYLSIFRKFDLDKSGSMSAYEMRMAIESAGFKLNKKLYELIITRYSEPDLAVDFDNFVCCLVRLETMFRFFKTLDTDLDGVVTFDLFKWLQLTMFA", "T1 sequence (P04632 1-268 partner)": "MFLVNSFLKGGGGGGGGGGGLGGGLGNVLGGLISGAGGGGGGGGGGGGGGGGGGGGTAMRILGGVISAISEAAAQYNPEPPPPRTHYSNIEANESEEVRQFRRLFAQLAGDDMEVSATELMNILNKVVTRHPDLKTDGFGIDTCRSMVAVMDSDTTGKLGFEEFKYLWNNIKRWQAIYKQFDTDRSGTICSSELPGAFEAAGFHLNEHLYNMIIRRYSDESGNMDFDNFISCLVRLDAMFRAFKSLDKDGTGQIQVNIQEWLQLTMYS", "test": "Effects on human calpain I (acellular, Suc-Leu-Tyr-AMC fluorescence)", "format": "biochemical", "conditions": "enzyme purified from human erythrocytes; 1 h at 25°C; read-out: Inhibition human calpain I, acellular [IC50 (nM)]", "method": "The test consists of measuring the activity of the enzyme (enzyme purified from human erythrocytes) which is incubated in a buffer in the presence of a peptide substrate coupled with a fluorochrome (amino-methylcourmarin, AMC) and calcium. The enzyme activated by the calcium, proteolyses the substrate and releases the AMC fragment. The AMC released fluoresces at 460 nm under excitation at 380 nm. The activity of the enzyme is therefore proportional to the quantity of fluorescence i.e. of free AMC fragment. The fluorescence (380/460 nm) is measured using a multi-well fluorimeter (Victor 2, Wallac).\nAssay is carried out in 96-well microplates with transparent bottoms and black walls in which 10 μl per well of substance to be tested in DMSO 10%, 45 μl of reaction mixture containing the human calpain I at 2.2 U/ml (Calbiochem, ref: 208713), the Suc Leu Tyr-AMC substrate (Bachem, ref: I-1355) at 1.1 mM in a buffer (Tris-HCl 110 mM; NaCl 110 mM; EDTA 2.2 mM; EGTA 2.2 mM; mercaptoethanol 1.1 mM) are distributed. The reaction is initiated by adding 45 μl of CaCl2 22mM. To determine the background noise, control wells without calcium are added to the plate (10 μL DMSO 10%+45 μL of buffer with the enzyme and the susbtrate +45 μL H2O). In order to determine the total activity of the enzyme control wells containing no product are added to the plate (10 μL DMSO 10%+45 μL of buffer with the enzyme and the substrate +45 μL of CaCl2 22 mM ). Each concentration of the products (0.1 nM to 10 μM) is tested in duplicate. The plates are shaken and incubation takes place for one hour at 25° C. in darkness. The fluorescence is read at 380/460 nm using the Victor."}}}
{"compound": "CC(C)C[C@@H](C=O)NC(=O)[C@H](CC(C)C)NC(=O)OCc1ccccc1", "note": "[EXAMPLE 1 B, benzyl (1S)-1-({[(1S)-1-formyl-3-methylbutyl]amino}carbonyl)-3-methylbutylcarbamate]", "values": [{"measurement": "IC50", "setting": "[1]", "value": "13400 ± 2390", "unit": "nM"}, {"measurement": "IC50", "setting": "human calpain I", "value": 6, "unit": "nM"}]}
